Measurements from patent publication US6660771B1, “Remedies for liver regeneration of transplanted liver” (Chugai Seiyaku Kabushiki Kaisha, priority 1999, dated 2003).

Test system: partial liver transplant
Experiment: Liver regeneration-promoting effect in rat 30% orthotopic partial liver transplantation
Assay type: in vivo
Details: for Relative liver gain: (liver weight on day 5) / (liver weight on day 0); for Relative liver gain / Liver weight gain: transfusion 50 ml/kg/day up to day 5, mean±SD; for Liver weight gain: (liver weight on day 5) − (liver weight on day 0)
Method: Male Wistar rats at 8 weeks of age (240-280g; 8-9 animals per group) were used for 30% orthotopic partial liver transplantation. Isolation of the liver from donors was performed as follows. Animals were abdominally incised under ether anesthesia and about 70% of the liver was resected and the common bile duct and arteries were separated immediately before starting liver perfusion with cold physiological saline from the portal vein. After starting perfusion, the remaining liver with the portal vein and the posterior vena cava-was removed from the donor animal. Recipients were abdominally incised under Nembutal anesthesia and the whole liver was resected and the upper end of the posterior vena cava of the graft was continuously sutured (7-0 proline) with the proximal end of the posterior vena cava of the recipients. The donor posterior vena cava of the graft was sutured end-to-end with that of the recipient, and the portal vein and common bile duct of the graft were anastomosed with those of the recipient, respectively, by the cuff technique. The operation period was 45 minutes on average, the […] period was within 900 seconds, and the total period for cold-storing the graft was 1 hour. Immediately after the operation was completed, a catheter was inserted from the jugular vein. The catheter was passed through the subcutaneous tunnel across both scapulae, and connected to a swivel through a protective coil after a harness was put on the animal. Rats were transferred to a metabolic cage and divided into the following two groups and continuously pumped with the transfusion formula at an administration rate of 50 ml/kg/day up to day 5. Valine group: An aqueous solution of L-valine (Japanese Pharmacopoeia) at 3.376% was transfused in combination with glucose at 5% on the day of operation and 20% on days 1-5. Control group: A solution of a 10% amino acid blend formula (Moripron F® made by Roussel Morishita Co., Ltd.) diluted in distilled water at a total nitrogen level equivalent to that of the valine group was transfused in combination with glucose at 5% on the day of operation and 20% on days 1-5. Animals were given free access to normal feed and water. On day 5, animals were abdominally incised under ether anesthesia and blood was collected from the abdominal aorta and the liver was separated after bleeding. Serum protein (TP), albumin (ALB), GOT, GPT and LDH and the liver weight were determined. The resected liver was fixed with formalin to prepare a hematoxylin-eosin stained sample for histological tests. The measurement results were expressed in mean±SD and statistically analyzed by the Mann-Whitney U test to show a significant difference if p<0.05. Liver weight gain and relative liver gain were determined as morphologic indications of the liver-regenerating effect. Here, the liver weight gain means (liver weight on day 5)-(liver weight on day 0), and the relative liver gain means (liver weight on day 5)/(liver weight on day 0). Not the liver weight itself but the liver weight gain was chosen as indication because liver transplants vary in weight and the difference between the weight of each liver transplant (weight on day 0) and the weight of the regenerated transplant (weight on day 5) more appropriately indicates changes in the transplant.

For `CC(C)[C@H](N)C(=O)O` [Valine, L-valine], the Relative liver gain was 2.24 ± 0.18, the Relative liver gain (listed as valine) was 2.24±0.18 and the “Liver weight gain” value was 3.88 ± 0.66 g. The “Liver weight gain” value (listed as valine) was 3.88 ± 0.66 g, the “Histopathological tests of the regenerated liver” value (day 5, hematoxylin-eosin stained sample) was “No abnormal observation” and the “Edema or necrosis of hepatocytes” value (day 5, histology of regenerated liver) was “Neither control group nor valine group showed edema or necrosis”. The “Liver weight (g) on day 5” value (male Wistar rats, continuous i.v. transfusion 50 ml/kg/day up to day 5, mean±SD) was 7.05 ± 0.99 g, the “Liver weight (g) on day 0” value (male Wistar rats, graft weight on day of transplantation (baseline), mean±SD) was 3.16 ± 0.45 g and the “Biochemical blood tests (TP, ALB, GOT, GPT, LDH)” value (serum on day 5, valine group vs control group) was “No significant difference”.
